ChEMBL document CHEMBL5352502, “Design, synthesis and biological evaluation of novel lipophilic 2, 5-disubstituted tetrazole analogues of muramyl dipeptide as NOD2 agonists” (Bioorg Med Chem, 2023)
Active and inactive are the calls of the source. The calls are words filed in the database; no cut-off is given here.

How the values were obtained:
[1] = Induction of BALB/c mouse peritoneal macrophage activation by measuring TNF-alpha level at 20 ug for 48 hrs by ELISA analysis; assay type: functional; details: dose 20 µg
[2] = Induction of mouse spleen dendritic cells activation at 20 ug for 24 hrs relative to control; assay type: functional, Dendritic cell; details: dose 20 µg
[3] = target: Nucleotide-binding oligomerization domain-containing protein 2 (Homo sapiens) (UniProt Q9HC29); assay: Binding affinity to NOD2 in HEK-Blue hNOD2 cells by measuring secreted alkaline phosphatase into culture supernatant at 20 ug measured after 24 hrs by HEK-Blue detection method; assay type: cell-based; details: filed as agonist, dose 20.0 µg
Sequence of Nucleotide-binding oligomerization domain-containing protein 2 (Homo sapiens) (Q9HC29 whole entry, the tested form may be a part): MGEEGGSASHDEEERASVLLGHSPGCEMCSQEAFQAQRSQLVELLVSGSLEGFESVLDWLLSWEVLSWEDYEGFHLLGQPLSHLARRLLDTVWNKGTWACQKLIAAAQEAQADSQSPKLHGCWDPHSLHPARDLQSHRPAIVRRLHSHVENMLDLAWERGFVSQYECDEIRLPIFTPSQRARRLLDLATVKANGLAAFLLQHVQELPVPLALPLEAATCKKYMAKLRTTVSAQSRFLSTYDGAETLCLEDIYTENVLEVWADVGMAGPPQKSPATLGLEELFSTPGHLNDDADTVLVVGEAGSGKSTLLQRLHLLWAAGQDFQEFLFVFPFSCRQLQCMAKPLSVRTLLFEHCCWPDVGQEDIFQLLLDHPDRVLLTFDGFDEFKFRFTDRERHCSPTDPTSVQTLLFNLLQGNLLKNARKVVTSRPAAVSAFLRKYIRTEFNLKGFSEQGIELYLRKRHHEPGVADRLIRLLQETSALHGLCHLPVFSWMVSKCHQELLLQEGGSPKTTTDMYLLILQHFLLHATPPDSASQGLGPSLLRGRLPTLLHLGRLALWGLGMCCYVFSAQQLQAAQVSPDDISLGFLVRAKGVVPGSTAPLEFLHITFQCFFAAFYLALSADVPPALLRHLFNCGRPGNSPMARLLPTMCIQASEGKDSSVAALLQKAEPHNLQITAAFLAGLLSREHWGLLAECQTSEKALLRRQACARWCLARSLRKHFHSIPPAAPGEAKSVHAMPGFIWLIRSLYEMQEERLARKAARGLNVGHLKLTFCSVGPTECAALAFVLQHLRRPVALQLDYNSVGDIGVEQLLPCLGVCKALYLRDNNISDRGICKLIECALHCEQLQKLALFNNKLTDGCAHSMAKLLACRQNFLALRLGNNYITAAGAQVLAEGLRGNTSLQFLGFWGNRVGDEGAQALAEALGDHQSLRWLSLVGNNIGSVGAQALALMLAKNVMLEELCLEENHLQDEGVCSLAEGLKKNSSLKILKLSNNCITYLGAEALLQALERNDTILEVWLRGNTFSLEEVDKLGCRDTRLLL

Peritoneal macrophage = assay: Cytotoxicity against BALB/c mouse peritoneal macrophage assessed as cell proliferation at 20 ug for 48 hrs by MTT assay; assay type: toxicity, cell-based; details: dose 20 µg
Serum [4] = assay: Induction of antibody titer production in immunized BALB/c mouse serum assessed as fold increase in IgG1 antibody titer at 20 ug for 28 days; assay type: functional; details: dose 20 µg; time 28 day
CD4+ve Th [5] = assay: Stimulation of CD4+ T helper cells in mouse spleen at 20 ug for 15 mins by auto- fluorescence based analysis; assay type: functional, cell-based; details: dose 20.0 µg
Splenocyte [6] = assay: Upregulation of IL-1beta in Dengue virus recombinant antigen restimulated mouse splenocyte incubated at 20 ug for 48 hrs by ELISA anlaysis; assay type: functional, cell-based; details: dose 20.0 µg
Splenocyte [7] = assay: Upregulation of IL-1beta in Dengue virus recombinant antigen restimulated mouse splenocyte incubated at 30 ug for 48 hrs by ELISA anlaysis; assay type: functional, cell-based; details: dose 10-30 µg
Serum [8] = assay: Induction of antibody titer production in immunized BALB/c mouse serum assessed as increase in IgG2a antibody titer at 10 to 30 ug for 28 days; assay type: functional, cell-free; details: dose 10-30 µg, time 28.0 day
CD8-positive T cell [9] = assay: Stimulation of […] in mouse spleen at 20 ug for 15 mins by auto- fluorescence based analysis; assay type: functional, tissue-based; details: dose 20.0 µg
Splenocyte [10] = assay: Cytotoxicity against mouse splenocyte incubated at 10 to 30 ug for 3 hrs in by MTT assay; assay type: toxicity, cell-based; details: dose 10-30 µg
Serum [11] = assay: Induction of antibody titer production in immunized BALB/c mouse serum assessed as increase in IgG1 antibody titer at 10 to 30 ug for 28 days; assay type: functional, cell-free; details: dose 10-30 µg, time 28.0 day
[12] = Cytotoxicity against BALB/c mouse peritoneal macrophage assessed as cell proliferation at 20 ug for 48 hrs by MTT assay relative to control; assay type: toxicity, cell-based; details: peritoneal macrophages, at 20 µg, read-out: Activity
CD4+ve Th [13] = assay: Stimulation of CD4+ T helper cells in mouse spleen for 15 mins by auto- fluorescence based analysis; assay type: functional, cell-based
Serum [14] = assay: Induction of antibody titer production in immunized BALB/c mouse serum assessed as fold increase in IgG1 antibody titer at 30 ug for 28 days; assay type: functional; details: dose 30 µg; time 28 day
CD8-positive T cell [15] = assay: Stimulation of […] in mouse spleen for 15 mins by auto- fluorescence based analysis; assay type: functional, tissue-based; details: dose 10-30 µg
Serum [16] = assay: Induction of antibody titer production in immunized BALB/c mouse serum assessed as increase in IgG2a antibody titer at 20 ug for 28 days; assay type: functional, cell-free; details: dose 20.0 µg, time 28.0 day
Serum [17] = assay: Induction of antibody titer production in immunized BALB/c mouse serum assessed as increase in IgG1 antibody titer at 20 ug for 28 days; assay type: functional, cell-free; details: dose 20.0 µg, time 28.0 day

Compound	Activity [1]	Activity [2]	Activity [3]	Activity (Peritoneal macrophage)	fold change (FC) (Serum [4])	Activity (CD4+ve Th [5])	Activity (Splenocyte [6])	Activity (Splenocyte [7])	Activity (Serum [8])	Activity (CD8-positive T cell [9])	Activity (Splenocyte [10])	Activity (Serum [11])	viability at 48 h, 20 ug [12]	Activity (CD4+ve Th [13])	fold change (FC) (Serum [14])	Activity (CD8-positive T cell [15])	Activity (Serum [16])	Activity (Serum [17])
CC(=O)N[C@@H]1[C@@H](O[C@H](C)C(=O)N[C@@H](C)C(=O)N[C@H](CCC(=O)O)c2nnn(C3CCCCCC3)n2)[C@H](O)[C@@H](CO)O[C@@H]1O	250 pg/mL	13%	Active	Non-Toxic														
CCCCCCCCn1nnc([C@@H](CCC(=O)O)NC(=O)[C@H](C)NC(=O)[C@@H](C)O[C@H]2[C@H](O)[C@@H](CO)O[C@H](O)[C@@H]2NC(C)=O)n1	<=100 pg/ml	13%	Active	Non-Toxic	11	inactive	Active	Active	Active	inactive	Non-Toxic	Active						
CCCCCCCCCCCCn1nnc([C@@H](CCC(=O)O)NC(=O)[C@H](C)NC(=O)[C@@H](C)O[C@H]2[C@H](O)[C@@H](CO)O[C@H](O)[C@@H]2NC(C)=O)n1	250 pg/mL	13%	Active	Non-Toxic									< 140%					
CCCCCCCCCCCCCCCCCCn1nnc([C@@H](CCC(=O)O)NC(=O)[C@H](C)NC(=O)[C@@H](C)O[C@H]2[C@H](O)[C@@H](CO)O[C@H](O)[C@@H]2NC(C)=O)n1	<=100 pg/ml	13%	Active	Non-Toxic														
CCCCn1nnc([C@@H](CCC(=O)O)NC(=O)[C@H](C)NC(=O)[C@@H](C)O[C@H]2[C@H](O)[C@@H](CO)O[C@H](O)[C@@H]2NC(C)=O)n1	<=100 pg/ml	13%	Active	Non-Toxic	8				Active		Non-Toxic	Active		Dose-Dependent Effect	11	Dose-Dependent Effect		
CC(=O)N[C@@H]1[C@@H](O[C@H](C)C(=O)N[C@@H](C)C(=O)N[C@H](CCC(=O)O)c2nn[nH]n2)[C@H](O)[C@@H](CO)O[C@@H]1O	250 pg/mL	13%	Active	Non-Toxic														
CC(=O)N[C@H]1[C@@H](OCc2ccccc2)O[C@@H]2CO[C@@H](c3ccccc3)O[C@H]2[C@@H]1O[C@H](C)C(=O)N[C@@H](C)C(=O)N[C@H](CCC(=O)OCc1ccccc1)C(N)=O		13%	Active	Non-Toxic	7						Toxic						Active	Active
